Several values for one entry are separate records, joined by “and”; a condition that tells them apart may be missing. Equal entries are not always repeated.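 Exposure lasted 48 hours, with cells grown in 96-well plates and compounds tested at five concentrations. GI50 is the concentration that inhibits growth by half. TGI denotes the concentration required for complete inhibition of growth.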 A value given as a limit tells only on which side of the number the result lay.

Among the test systems are K-562 leukemia; MOLT-4 leukemia; IGROV1 ovarian; KM12 colon; MDA-MB-231 breast; SN12C renal; T-47D breast; SF-295 CNS; UACC-257 melanoma; SF-539 CNS.
Assay in all cases: NCI anticancer screen, dose series, 48 h

In the case of `CCCCCC(=O)N1c2ccccc2NC2=C(C(=O)CC(c3ccc(OC)c(OC)c3)C2)C1c1ccc(C(F)(F)F)cc1` (configuration not stated), the GI50 with K-562 leukemia is more than 100 µM; in the experiment with MOLT-4 leukemia, 8.9 µM; in the experiment with IGROV1 ovarian it was more than 100 µM; with KM12 colon, more than 100 µM; with MDA-MB-231 breast, 20.4 µM; with SN12C renal, more than 100 µM. Further, the GI50 in the experiment on T-47D breast, with SF-295 CNS, in the experiment on UACC-257 melanoma and in the experiment on SF-539 CNS was more than 100 µM each time. In addition, the TGI in the experiment with K-562 leukemia, with MOLT-4 leukemia, with IGROV1 ovarian, in the experiment on KM12 colon, in the experiment with MDA-MB-231 breast and with SN12C renal was more than 100 µM in each case. Also, the TGI with T-47D breast, in the experiment with SF-295 CNS, in the experiment on UACC-257 melanoma and in the experiment on SF-539 CNS was more than 100 µM throughout.
`O=[N+]([O-])c1cccc(-c2nc3sccn3c2-c2ccnc(NCCCNS(=O)(=O)c3ccc(F)cc3)n2)c1`: the GI50 is 1.62 µM with K-562 leukemia; 1.23 µM in the experiment on MOLT-4 leukemia; 2.9 µM in the experiment with IGROV1 ovarian; 2.59 µM with KM12 colon; 4.98 µM in the experiment on MDA-MB-231 breast; 2.61 µM with SN12C renal. The GI50 was 0.303 µM in the experiment with T-47D breast, 2.62 µM in the experiment on SF-295 CNS, 2.54 µM in the experiment on UACC-257 melanoma and 3.61 µM in the experiment with SF-539 CNS. The TGI with K-562 leukemia is more than 100 µM; with MOLT-4 leukemia it was 5.52 µM; with IGROV1 ovarian, 26.8 µM; in the experiment with KM12 colon, 7.91 µM; in the experiment on MDA-MB-231 breast it was more than 100 µM; in the experiment on SN12C renal it was more than 100 µM. In addition, the TGI in the experiment on T-47D breast is 2.82 µM; in the experiment on SF-295 CNS, 8.15 µM; in the experiment with UACC-257 melanoma, 7.96 µM; in the experiment with SF-539 CNS it was more than 100 µM.
On to `O=C(O)CC(Cc1ccc2c(c1)OCO2)C(=O)O` (configuration not stated), for which the TGI in the experiment on K-562 leukemia, with MOLT-4 leukemia, with IGROV1 ovarian, in the experiment on KM12 colon, with MDA-MB-231 breast and in the experiment on SN12C renal was more than 100 µM each time. Besides, the TGI with T-47D breast, in the experiment on SF-295 CNS, in the experiment on UACC-257 melanoma and in the experiment on SF-539 CNS was more than 100 µM in each case.
In the case of `COC(=O)c1c2c(c(C)[n+]([O-])c1C)C(=O)C=C(NCc1ccc(Cl)cc1)C2=O`, the GI50 in the experiment with K-562 leukemia is 0.0478 µM; in the experiment on MOLT-4 leukemia, 0.514 µM; in the experiment with IGROV1 ovarian, 0.346 µM; in the experiment with KM12 colon, 0.127 µM; in the experiment with MDA-MB-231 breast, 0.286 µM; with SN12C renal, 0.309 µM. In addition, the GI50 in the experiment on T-47D breast is 0.151 µM; in the experiment with SF-295 CNS, 0.362 µM; in the experiment with UACC-257 melanoma it was 0.234 µM; in the experiment on SF-539 CNS it was 0.733 µM. The TGI amounted to 5.25 µM in the experiment on K-562 leukemia; 2.92 µM in the experiment on MOLT-4 leukemia; 1.82 µM in the experiment on IGROV1 ovarian; 2 µM in the experiment on KM12 colon; 3.62 µM with MDA-MB-231 breast; 1.24 µM in the experiment on SN12C renal. In addition, the TGI was determined as 1.7 µM in the experiment on T-47D breast, 1.58 µM in the experiment with SF-295 CNS, 0.868 µM in the experiment on UACC-257 melanoma and 1.98 µM with SF-539 CNS.
For the compound `Nc1nc(-n2cccn2)nc(-n2cccn2)c1Br`, the GI50 in the experiment on K-562 leukemia, in the experiment with MOLT-4 leukemia, in the experiment on IGROV1 ovarian, in the experiment with KM12 colon, in the experiment with MDA-MB-231 breast and with SN12C renal was more than 100 µM each time. The GI50 with T-47D breast, with SF-295 CNS, with UACC-257 melanoma and with SF-539 CNS was more than 100 µM each time. In addition, the TGI in the experiment on K-562 leukemia, in the experiment with MOLT-4 leukemia, with IGROV1 ovarian, in the experiment on KM12 colon, in the experiment on MDA-MB-231 breast and in the experiment with SN12C renal was more than 100 µM in each case. The TGI with T-47D breast, in the experiment with SF-295 CNS, with UACC-257 melanoma and with SF-539 CNS was more than 100 µM each time.
Turning to `Cc1cccc(C(C)O)n1` (configuration not stated), the TGI in the experiment on K-562 leukemia, with MOLT-4 leukemia, with IGROV1 ovarian, with KM12 colon, in the experiment on MDA-MB-231 breast and in the experiment on SN12C renal was more than 100 µM throughout. Besides, the TGI with T-47D breast, with SF-295 CNS, in the experiment with UACC-257 melanoma and in the experiment on SF-539 CNS was more than 100 µM in each case.
Regarding `CC[C@@]1(O)C(=O)NCc2c1cc1n(c2=O)Cc2cc3cc4c(cc3nc2-1)OCO4`, the GI50 was 0.164 µM in the experiment with K-562 leukemia; 0.118 µM with MOLT-4 leukemia; 1.59 µM in the experiment with IGROV1 ovarian; 11.7 µM in the experiment with KM12 colon; more than 48.2 µM in the experiment on MDA-MB-231 breast; 0.328 µM with SN12C renal. The GI50 was 0.842 µM in the experiment on T-47D breast, 0.148 µM in the experiment on SF-295 CNS, 14.1 µM in the experiment with UACC-257 melanoma and 0.374 µM in the experiment on SF-539 CNS. Moreover, the TGI was more than 100 µM in the experiment with K-562 leukemia; 0.414 µM with MOLT-4 leukemia; 63.4 µM in the experiment on IGROV1 ovarian; more than 100 µM in the experiment with KM12 colon; more than 100 µM in the experiment on MDA-MB-231 breast; 11.7 µM in the experiment on SN12C renal. Moreover, the TGI in the experiment on T-47D breast is more than 27.1 µM; in the experiment on SF-295 CNS, 25.7 µM; in the experiment with UACC-257 melanoma, more than 100 µM; in the experiment with SF-539 CNS, 4.57 µM.
Regarding `CCOC(=O)c1sc(=S)c2c(C(=O)c3ccccc3)c(C(=O)c3ccccc3)sc2c1C(=O)OCC`, the GI50 is 3.21 µM with K-562 leukemia; 3.58 µM with MOLT-4 leukemia; 5.24 µM in the experiment on IGROV1 ovarian; 2.44 µM in the experiment with KM12 colon; 3.61 µM in the experiment with MDA-MB-231 breast; 3.16 µM in the experiment with SN12C renal. For the same compound, the GI50 was 8.64 µM in the experiment on T-47D breast, 2.86 µM in the experiment with SF-295 CNS, 3.45 µM with UACC-257 melanoma and 3.82 µM with SF-539 CNS. The TGI with K-562 leukemia is more than 100 µM; in the experiment with MOLT-4 leukemia, more than 100 µM; in the experiment on IGROV1 ovarian, 85.7 µM; with KM12 colon, 11 µM; in the experiment with MDA-MB-231 breast, 34.5 µM; in the experiment on SN12C renal, 19.2 µM. Also, the TGI in the experiment on T-47D breast was more than 100 µM; with SF-295 CNS, 13.5 µM; with UACC-257 melanoma, 25.7 µM; with SF-539 CNS it was 17.8 µM.
Take `COc1cc2c(cc1OCCCCCOc1cc(-c3ccc(F)cc3)nc(C)n1)N=C[C@@H]1CCCN1C2=O`: the GI50 is more than 21.6 µM in the experiment with K-562 leukemia; more than 27.8 µM with IGROV1 ovarian; more than 48.3 µM in the experiment on KM12 colon; more than 39.5 µM with MDA-MB-231 breast; more than 44.2 µM in the experiment on SN12C renal; 6.27 µM in the experiment with T-47D breast. The GI50 is more than 50.9 µM in the experiment on SF-295 CNS, more than 100 µM in the experiment with UACC-257 melanoma and more than 100 µM with SF-539 CNS. The TGI with K-562 leukemia is more than 66.4 µM; in the experiment on MOLT-4 leukemia, more than 45 µM; in the experiment with IGROV1 ovarian it was more than 49.6 µM; with KM12 colon it was more than 73.6 µM; in the experiment with MDA-MB-231 breast, more than 65.5 µM; with SN12C renal, more than 71.2 µM. Besides, the TGI in the experiment on T-47D breast was 59.6 µM; in the experiment on SF-295 CNS, more than 76.1 µM; with UACC-257 melanoma, more than 100 µM; in the experiment on SF-539 CNS it was more than 100 µM.
As for `COc1cc(N2CCC(N(C)C)CC2)ccc1Nc1ncc(Cl)c(Nc2ccccc2P(C)(C)=O)n1`, the TGI in the experiment with K-562 leukemia is more than 100 µM; with MOLT-4 leukemia, more than 100 µM; in the experiment with IGROV1 ovarian, more than 100 µM; with KM12 colon, more than 30 µM; with MDA-MB-231 breast, 7.37 µM and > 5.39 µM; in the experiment on SN12C renal, more than 72.8 µM. For the same compound, the TGI in the experiment on T-47D breast is 38.5 µM and > 10 µM; with SF-295 CNS, 15.8 µM and > 5.44 µM; in the experiment on UACC-257 melanoma, 30 µM and > 8.47 µM; with SF-539 CNS it was 2.97 µM and 2.49 µM. Moreover, the GI50 in the experiment with MOLT-4 leukemia is 4.05 µM and 1.16 µM; in the experiment with IGROV1 ovarian, 0.687 µM and 0.181 µM; in the experiment with MDA-MB-231 breast it was 1.22 µM and 0.333 µM; in the experiment with SN12C renal, 0.971 µM and 0.398 µM; in the experiment on T-47D breast, 7.03 µM and 1.43 µM; with SF-295 CNS, 1.81 µM and 0.409 µM. For the same compound, the GI50 in the experiment with UACC-257 melanoma was 4.01 µM and 0.61 µM; with SF-539 CNS, 1.15 µM and 0.511 µM.
